Test results from ChEMBL document CHEMBL1201862, “PubChem BioAssay data set” (2004).
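Compound exposure: 48 hours, 5 concentrations, 96-well plates. The concentration for 50% growth inhibition is given as GI50.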 The source made the active and inactive calls. Cut-off read from the data, not from the text of the source: active = GI50 up to about 1.1 µM and inactive = higher.

How the values were obtained:
Assay in all cases: inhibition of tumour cell growth, NCI panel, 48 h
[1] = tested on: U-251
[2] = tested on: SNB-75
[3] = tested on: HCT-116
[4] = tested on: OVCAR-4
[5] = tested on: SF-268
[6] = tested on: OVCAR-8
[7] = tested on: LOX IMVI
[8] = tested on: Malme-3M
[9] = tested on: CCRF-CEM
[10] = tested on: HOP-62
[11] = tested on: OVCAR-3
[12] = tested on: SF-539
[13] = tested on: UACC-62
[14] = tested on: KM-20L2
[15] = tested on: HOP-92
[16] = tested on: HOP-18
[17] = tested on: SK-OV-3
[18] = tested on: MOLT-4
[19] = tested on: ACHN
[20] = tested on: RPMI-8226

Row | Structure (SMILES) | GI50 [1] | GI50 [2] | GI50 [3] | GI50 [4] | GI50 [5] | GI50 [6] | GI50 [7] | GI50 [8] | GI50 [9] | GI50 [10] | GI50 [11] | GI50 [12] | GI50 [13] | GI50 [14] | GI50 [15] | GI50 [16] | GI50 [17] | GI50 [18] | GI50 [19] | GI50 [20]
1 | O=c1ccn([C@@H]2C=C(CO)[C@@H](O)[C@H]2O)c(=O)[nH]1 | > 625 µM (inactive) | 90.4 µM (inactive) | > 625 µM (inactive) | > 625 µM (inactive) | > 625 µM (inactive) | > 625 µM (inactive) | > 625 µM (inactive) | > 625 µM (inactive) | > 625 µM (inactive) | > 625 µM (inactive) | > 625 µM (inactive) | > 625 µM (inactive) | > 625 µM (inactive) | > 625 µM (inactive) | > 625 µM (inactive) | > 625 µM (inactive) | > 625 µM (inactive) | – | – | –
2 | COc1ccc(/C=c2\sc3n(c2=O)CCN=3)cc1 | > 100 µM (inactive) | 57.8 µM (inactive) | > 100 µM (inactive) | > 100 µM (inactive) | – | > 100 µM (inactive) | 64.7 µM (inactive) | 39.1 µM (inactive) | 96.2 µM (inactive) | > 100 µM (inactive) | > 100 µM (inactive) | > 100 µM (inactive) | > 100 µM (inactive) | > 100 µM (inactive) | 29.8 µM (inactive) | 88.3 µM (inactive) | > 100 µM (inactive) | 68.5 µM (inactive) | > 100 µM (inactive) | –
3 | c1ccc(-n2cnnc2-c2nsc3ccccc23)cc1 | > 100 µM (inactive) | 29.5 µM (inactive) | > 100 µM (inactive) | > 100 µM (inactive) | > 100 µM (inactive) | > 100 µM (inactive) | > 100 µM (inactive) | – | > 100 µM (inactive) | > 100 µM (inactive) | 80.2 µM (inactive) | > 100 µM (inactive) | > 100 µM (inactive) | > 100 µM (inactive) | 53.1 µM (inactive) | 9.71 µM (inactive) | – | > 100 µM (inactive) | 67.3 µM (inactive) | > 100 µM (inactive)
4 | CCCN1C(=O)/C(=C(/O)C(=O)OCC)C(c2ccc(OC)c(OC)c2)C1=O (configuration not stated) | > 100 µM (inactive) | > 100 µM (inactive) | > 100 µM (inactive) | > 100 µM (inactive) | > 100 µM (inactive) | > 100 µM (inactive) | > 100 µM (inactive) | > 100 µM (inactive) | > 100 µM (inactive) | > 100 µM (inactive) | > 47.8 µM (inactive) | > 100 µM (inactive) | > 100 µM (inactive) | > 100 µM (inactive) | > 100 µM (inactive) | > 100 µM (inactive) | > 100 µM (inactive) | > 100 µM (inactive) | – | > 93.8 µM (inactive)
5 | NCCCN(CCCN)CCN(CCN(CCCN)CCCN)CCN(CCCN)CCCN | 66.1 µM (inactive) | 4.95 µM (inactive) | > 100 µM (inactive) | > 100 µM (inactive) | – | 44.6 µM (inactive) | 67.8 µM (inactive) | – | > 10 µM (inactive) | > 100 µM (inactive) | > 100 µM (inactive) | – | – | – | 82.2 µM (inactive) | – | 48.4 µM (inactive) | > 10 µM (inactive) | > 100 µM (inactive) | > 100 µM (inactive)
6 | C[C@H]1O[C@@H](O[C@H]2[C@@H](O)C[C@H](O[C@H]3[C@@H](O)C[C@H](O[C@H]4CC[C@@]5(C)[C@H](CC[C@@H]6[C@@H]5CC[C@]5(C)[C@@H](C7=CC(=O)OC7)CC[C@]65O)C4)O[C@@H]3C)O[C@@H]2C)C[C@H](O)[C@@H]1O [DIGITOXIN] | – | 0.0676 µM (active) | 0.0165 µM (active) | 0.0199 µM (active) | < 0.0241 µM (active) | – | – | 0.028 µM (active) | < 0.0199 µM (active) | < 0.0199 µM (active) | < 0.0172 µM (active) | < 0.0123 µM (active) | 0.0579 µM (active) | – | 0.0422 µM (active) | – | 0.045 µM (active) | – | < 0.015 µM (active) | 0.0292 µM (active)
7 | COc1ccc(C2COc3cc(OC(C)=O)c(OC(C)=O)cc3C2)cc1 (configuration not stated) | 6.49 µM (inactive) | 7.76 µM (inactive) | 20.4 µM (inactive) | 16.7 µM (inactive) | 12.3 µM (inactive) | 18.8 µM (inactive) | 16.5 µM (inactive) | 23.2 µM (inactive) | 3.09 µM (inactive) | 31.6 µM (inactive) | 19.6 µM (inactive) | 19.9 µM (inactive) | 19 µM (inactive) | 31.4 µM (inactive) | 9.08 µM (inactive) | 2.78 µM (inactive) | 40.1 µM (inactive) | 5.66 µM (inactive) | – | 5.97 µM (inactive)
8 | CCOC(=O)c1ccc(N(CCOS(C)(=O)=O)CCOS(C)(=O)=O)cc1 | 35.9 µM (inactive) | – | 30.1 µM (inactive) | 35.7 µM (inactive) | 26.1 µM (inactive) | 47 µM (inactive) | 48.4 µM (inactive) | 38.8 µM (inactive) | 23.9 µM (inactive) | – | 36.6 µM (inactive) | 25.1 µM (inactive) | 27.8 µM (inactive) | – | 37.6 µM (inactive) | – | – | 17.8 µM (inactive) | 26 µM (inactive) | 25.1 µM (inactive)
9 | CN1COCN/C1=N/C#N | – | > 100 µM (inactive) | > 100 µM (inactive) | > 100 µM (inactive) | > 100 µM (inactive) | > 10 µM (inactive) | > 100 µM (inactive) | > 100 µM (inactive) | > 100 µM (inactive) | > 100 µM (inactive) | 36.1 µM (inactive) | > 100 µM (inactive) | > 100 µM (inactive) | > 100 µM (inactive) | – | > 100 µM (inactive) | > 100 µM (inactive) | > 100 µM (inactive) | > 100 µM (inactive) | > 100 µM (inactive)
